Data from patent publication US20230322789A1, “PYRAZOLOPYRIDAZINONE COMPOUND, AND PHARMACEUTICAL COMPOSITION AND USE THEREOF” (BroadenBio Co., Ltd., priority 2020, published 2023).
Counter-ions that a name gives are not always drawn.

Key:
HPK1 = HPK1 (Homo sapiens (Human), UniProt Q92918); assay: HPK1 kinase activity inhibition test (ADP-Glo, luminescence); format: biochemical; settings: HPK1 5 nM, ATP 2 μM, read-out: IC50, inhibitory effects of compounds on HPK1 kinase activity
Experimental: 1. HPK1 Kinase Activity Inhibition Test
The kinase activity of HPK1 is manifested as activity of autophosphorylation and phosphorylation of downstream substrates. In the process of autophosphorylation, additional substrates are not required, and ATP is consumed to generate ADP. The amount of the product was measured by ADP-Glo reagent and luminescence method to reflect kinase activity.
Test compounds: compounds prepared in the examples of this application.
Prepare compound stock solution: dissolve the compound to be tested in 100% DMSO to make a 10 mM stock solution;
Prepare 4× Kinase Reaction Buffer:
Prepare 2×HPK1 Kinase Solution:
Dilute the stock solution of the compound to be tested by 5 times with […], make a 4-fold equal dilution in a 96-well dilution plate, add 1 μL of the compound to 49 µL of kinase reaction buffer, and shake on a microplate shaker for 20 minutes. Transfer 2 μL of […] kinase solution to 384 reaction plate, add 1 μL of the test compound to the 384 reaction plate (Greiner, 784075), centrifuge for 1 minute (1000 rpm/min), incubate at 25° C. for 10 minutes. Transfer […] of the 4×ATP mixture to a 384 reaction plate, centrifuge for 1 minute (1000 rpm/mm), and incubate at 25° C. for 60 minutes. In the reaction system, the final concentration of DMSO was […]. Transfer 4 μL of ADP-Glo to a 384 reaction plate, centrifuge for 1 minute (1000 rpm/min), and incubate at 25° C. for 40 minutes. Transfer 8 μL detection solution to a 384 reaction plate, centrifuge for 1 minute (1000 rpm/min), and incubate at 25° C. for 40 minutes. The […] signal was read using a Biotek multi-function plate reader, and the […] (half inhibitory concentration) of the compound was obtained using a four-coefficient nonlinear fitting formula.

Human Jurkat-E6-1 cells = assay: Measurement of IL-2 secretion of Jurkat cells by ELISA; format: cell-based; settings: Homo sapiens, Jurkat E6.1, anti-CD3/anti-CD28 stimulation 24 hours, read-out: Percentage of the amount of IL-2 secreted from compound treated/DMSO-treated cells; for activity at 3 µM: test compound 3.0 μM; for activity at 1 µM: test compound 1.0 μM
Experimental: 2. Measurement of IL-2 Secretion of Jurkat Cells by ELISA
Human Jurkat-E6-1 cells were incubated with various concentrations of test compounds for 30 minutes in a humidified incubator at 37° C. and […]. Cells were transferred to cell culture plates pre-coated with anti-human CD3 antibody, then soluble anti-human CD28 antibody was added, and cells were stimulated for 24 hours at 37° C. and 5% CO2 in a humidified incubator. The cell culture medium was collected by centrifugation, and was then transferred to a 96-well transparent microtiter plate (Thermo) pre-coated with anti-human IL-2 antibody, incubated at room temperature for 2 hours, and gently shaken, washed with washing buffer for 4 times, and then followed the ELISA MAX Deluxe Set Human IL-2 (BioLegend) kit procedure, used a microplate reader (Molecular Device, i3X) to read the GD value. The best standard curve was selected by the microplate reader application software, and the corresponding concentration was calculated according to the GD value of the standard. Results are expressed as a percentage of the amount of IL-2 secreted from compound-treated/DMSO-treated cells.

HPK1, sequence (Q92918 whole entry): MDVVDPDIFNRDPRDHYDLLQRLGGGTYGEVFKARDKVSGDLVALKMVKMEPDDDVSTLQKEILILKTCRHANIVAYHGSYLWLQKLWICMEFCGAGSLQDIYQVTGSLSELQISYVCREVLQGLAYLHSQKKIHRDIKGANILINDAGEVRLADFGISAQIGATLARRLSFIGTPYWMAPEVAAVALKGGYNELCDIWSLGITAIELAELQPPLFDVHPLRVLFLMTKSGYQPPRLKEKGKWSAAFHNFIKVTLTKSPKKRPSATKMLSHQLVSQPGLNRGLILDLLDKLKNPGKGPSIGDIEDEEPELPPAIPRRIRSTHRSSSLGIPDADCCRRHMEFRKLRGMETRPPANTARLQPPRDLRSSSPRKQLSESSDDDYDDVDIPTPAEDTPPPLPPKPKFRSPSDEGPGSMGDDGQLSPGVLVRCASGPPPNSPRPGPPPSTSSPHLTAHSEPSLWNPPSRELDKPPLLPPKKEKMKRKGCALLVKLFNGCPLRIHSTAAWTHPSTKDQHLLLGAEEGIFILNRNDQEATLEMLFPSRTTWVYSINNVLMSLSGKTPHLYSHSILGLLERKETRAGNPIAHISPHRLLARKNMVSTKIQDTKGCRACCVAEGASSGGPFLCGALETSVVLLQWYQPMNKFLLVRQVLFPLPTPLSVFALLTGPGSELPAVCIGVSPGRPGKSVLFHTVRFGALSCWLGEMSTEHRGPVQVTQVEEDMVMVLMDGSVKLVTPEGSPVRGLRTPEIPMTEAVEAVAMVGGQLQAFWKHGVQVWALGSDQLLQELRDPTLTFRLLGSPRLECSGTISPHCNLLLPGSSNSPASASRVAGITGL

Compound	IC50 (HPK1) [nM]	activity at 3 µM (Human Jurkat-E6-1 cells) [%]	activity at 1 µM (Human Jurkat-E6-1 cells) [%]
Cc1cccc(F)c1-n1nc2c(-c3ccc4c(c3)CNCC4)n[nH]c2cc1=O [Compound 161, 5-(2-fluoro-6-methylphenyl)-3-(1,2,3,4-tetrahydroisoquinolin-7-yl)-1H-pyrazolo[4,3-c]pyridazin-6(5H)-one hydrochloride]	≤ 50	393	–
Cc1cccc(F)c1-n1nc2c(-c3ccc4c(c3)CCN(C3CNC3)C4)n[nH]c2cc1=O [Compound 193]	≤ 50	169	–
CCc1cccc(F)c1-n1nc2c(-c3ccc(N4CCN(C)CC4)nc3)n[nH]c2cc1=O [Compound 98, 5-(2-ethyl-6-fluorophenyl)-3-(6-(4-methylpiperazin-1-yl)pyrid-3-yl)-1H-pyrazolo[4,3-c]pyridazin-6(5H)-one]	≤ 50	850	–
COc1cccc(F)c1-n1nc2c(-c3ccc(N4CCN(C)CC4)cc3)n[nH]c2c(C)c1=O [Compound 154, 5-(2-fluoro-6-methoxyphenyl)-7-methyl-3-(4-(4-methylpiperazin-1-yl)phenyl)-1H-pyrazolo[4,3-c]pyridazin-6(5H)-one]	50 to 500	–	382
Cc1cccc(F)c1-n1nc2c(-c3ccc(N4CCN(C)CC4)nc3)n[nH]c2cc1=O [Compound 11, 5-(2-fluoro-6-methylphenyl)-3-(6-(4-methylpiperazin-1-yl)pyrid-3-yl)-1H-pyrazolo[4,3-c]pyridazin-6(5H)-one]	50 to 500	–	296
COc1cc(C#N)cc(F)c1-n1nc2c(-c3ccc(N4CCN(CCO)CC4)cc3)n[nH]c2cc1=O [Compound 114, 3-fluoro-4-(3-(4-(4-(2-hydroxyethyl)piperazin-1-yl)phenyl)-6-oxo-1H-pyrazolo[4,3-c]pyridazin-5(6H)-yl)-5-methoxybenzonitrile]	≤ 50	309	–
Cc1cccc(F)c1-n1nc2c(-c3ccc(N4C[C@@H]5C[C@H]4CN5C)cc3)n[nH]c2cc1=O [Compound 87]	≤ 50	584	–
COc1cc(-c2n[nH]c3cc(=O)n(-c4c(C)cccc4F)nc23)ccc1N1CCN(C)CC1 [Compound 14, 5-(2-fluoro-6-methylphenyl)-3-(3-methoxy-4-(4-methylpiperazin-1-yl)phenyl)-1H-pyrazolo[4,3-c]pyridazin-6(5H)-one]	50 to 500	255	–
COc1cccc(F)c1-n1nc2c(-c3cc(N4CCN(C)CC4)ccc3F)n[nH]c2cc1=O [Compound 210, 3-(2-fluoro-5-(4-methylpiperazin-1-yl)phenyl)-5-(2-fluoro-6-methoxyphenyl)-1H-pyrazolo[4,3-c]pyridazin-6(5H)-one]	≤ 50	–	298
Cc1cc(C#N)cc(F)c1-n1nc2c(-c3ccc4c(c3)CNCC4)n[nH]c2cc1=O [Compound 171, 3-fluoro-5-methyl-4-(3-(1,2,3,4-tetrahydroisoquinolin-7-yl)-6-oxo-1H-pyrazolo[4,3-c]pyridazin-5(6H)-yl)benzonitrile]	50 to 500	220	–
COc1cc(C#N)cc(F)c1-n1nc2c(-c3ccc(N4CCN(C5COC5)CC4)cc3)n[nH]c2cc1=O [Compound 86, 3-fluoro-5-methoxy-4-(3-(4-(4-(oxetan-3-yl)piperazin-1-yl)phenyl)-6-oxo-1H-pyrazolo[4,3-c]pyridazin-5(6H)-yl)benzonitrile]	≤ 50	334	–
COc1cccc(F)c1-n1nc2c(-c3cnn(C)c3)n[nH]c2cc1=O [Compound 21, 5-(2-fluoro-6-methoxyphenyl)-3-(1-methyl-1H-pyrazol-4-yl)-1H-pyrazolo[4,3-c]pyridazin-6(5H)-one]	50 to 500	258	–
Cc1cccc(F)c1-n1nc2c(-c3ccc(N4CCN(C5COC5)CC4)nc3)n[nH]c2cc1=O [Compound 103]	≤ 50	716	–
COc1cccc(F)c1-n1nc2c(-c3ccc(N4CCN(C)C(C(C)(C)O)C4)cc3)n[nH]c2cc1=O (stereo not drawn) [Compound 126]	≤ 50	428	–
COCCN1CCN(c2ccc(-c3n[nH]c4cc(=O)n(-c5c(C)cccc5F)nc34)cn2)CC1 [Compound 119, 5-(2-fluoro-6-methylphenyl)-3-(6-(4-(2-methoxyethyl)piperazin-1-yl)pyrid-3-yl)-1H-pyrazolo[4,3-c]pyridazin-6(5H)-one]	≤ 50	531	–
COc1cccc(F)c1-n1nc2c(-c3ccc(N4CCOCC4)cc3)n[nH]c2c(C)c1=O [Compound 155, 5-(2-fluoro-6-methoxyphenyl)-7-methyl-3-(4-morpholinophenyl)-1H-pyrazolo[4,3-c]pyridazin-6(5H)-one]	50 to 500	435	–
CCc1cccc(F)c1-n1nc2c(-c3ccc(N4CCN(CC(C)(C)O)CC4)cc3)n[nH]c2cc1=O [Compound 116, 5-(2-ethyl-6-fluorophenyl)-3-(4-(4-(2-hydroxyl-2-methylpropyl)piperazin-1-yl)phenyl)-1H-pyrazolo[4,3-c]pyridazin-6(5H)-one]	–	–	193
Cc1cccc(F)c1-n1nc2c(-c3ccc(N4CCN5C(=O)OCC5C4)nc3)n[nH]c2cc1=O (stereo not drawn) [Compound 129, 7-(5-(5-(2-fluoro-6-methylphenyl)-6-oxo-5,6-dihydro-1H-pyrazolo[4,3-c]pyridazin-3-yl)pyridin-2-yl)tetrahydro-1H-oxazolo[3,4-a]pyrazin-3(5H)-one]	–	807	–
COc1cccc(F)c1-n1nc2c(-c3ccc4c(c3)CN(CC(F)F)CC4)n[nH]c2cc1=O [Compound 166, 3-(2-(2,2-difluoroethyl)-1,2,3,4-tetrahydroisoquinolin-7-yl)-5-(2-fluoro-6-methoxyphenyl)-1H-pyrazolo[4,3-c]pyridazin-6(5H)-one]	50 to 500	–	–
COc1cccc(F)c1-n1nc2c(-c3ccc(N4CCN(C)CC4)nc3)n[nH]c2cc1=O [Compound 10]	≤ 50	–	–
Cc1cccc(F)c1-n1nc2c(-c3ccc4c(c3)C3COC(=O)N3CC4)n[nH]c2cc1=O (stereo not drawn) [Compound 185, 9-(5-(2-fluoro-6-methylphenyl)-6-oxo-5,6-dihydro-1H-pyrazolo[4,3-c]pyridazin-3-yl)-5,6-dihydro-1H-oxazolo[4,3-a]isoquinolin-3(10bH)-one]	500 to 2000	–	–
Cc1cccc(F)c1-n1nc2c(-c3ccc4c(c3)CN(C)[C@@H](CO)C4)n[nH]c2cc1=O [Compound 179, (R)-5-(2-fluoro-6-methylphenyl)-3-(3-(hydroxymethyl)-2-methyl-1,2,3,4-tetrahydroisoquinolin-7-yl)-1H-pyrazolo[4,3-c]pyridazin-6(5H)-one]	50 to 500	–	–
Cc1cccc(F)c1-n1nc2c(-c3ccc4c(c3)CN(C3CCN(C)CC3)CC4)n[nH]c2cc1=O [Compound 168, 5-(2-fluoro-6-methylphenyl)-3-(2-(1-methylpiperidin-4-yl)-1,2,3,4-tetrahydroisoquinolin-7-yl)-1H-pyrazolo[4,3-c]pyridazin-6(5H)-one]	50 to 500	–	–
COc1cccc(F)c1-n1nc2c(-c3cccc(N4CCC(O)CC4)c3)n[nH]c2cc1=O [Compound 206, 3-(3-(4-hydroxylpiperidin-1-yl)phenyl)-5-(2-fluoro-6-methoxyphenyl)-1H-pyrazolo[4,3-c]pyridazin-6(5H)-one]	50 to 500	–	–
Cc1ccncc1-n1nc2c(-c3ccc(N4CCN(C)CC4)cc3)n[nH]c2cc1=O [Compound 47, 3-(4-(4-methylpiperazin-1-yl)phenyl)-5-(4-methylpyrid-3-yl)-1H-pyrazolo[4,3-c]pyridazin-6(5H)-one]	500 to 2000	–	–
Cc1cccc(F)c1-n1nc2c(-c3cccc(N4CCN(C)CC4)c3F)n[nH]c2cc1=O [Compound 207, 3-(2-fluoro-3-(4-methylpiperazin-1-yl)phenyl)-5-(2-fluoro-6-methylphenyl)-1H-pyrazolo[4,3-c]pyridazin-6(5H)-one]	500 to 2000	–	–
